Test results reported in patent US20240116985A1, “STAPLED PEPTIDES AND METHODS THEREOF” (priority 2020, published 2024).
pIC50: −log10 of the molar value. Like-named read-outs stand apart in the source and are kept apart here.

Assays:
[1] = molecular target: T1, full-length beta-Catenin (Uniprot ID P35222) (Homo sapiens, UniProt P35222); experiment: Fluorescence polarization IC50 (beta-catenin / 5FAM-TCF4 10-53 competition); type: binding
T1 construct: 10 nM full-length beta-Catenin (Uniprot ID P35222)
T1 sequence (P35222 1-781): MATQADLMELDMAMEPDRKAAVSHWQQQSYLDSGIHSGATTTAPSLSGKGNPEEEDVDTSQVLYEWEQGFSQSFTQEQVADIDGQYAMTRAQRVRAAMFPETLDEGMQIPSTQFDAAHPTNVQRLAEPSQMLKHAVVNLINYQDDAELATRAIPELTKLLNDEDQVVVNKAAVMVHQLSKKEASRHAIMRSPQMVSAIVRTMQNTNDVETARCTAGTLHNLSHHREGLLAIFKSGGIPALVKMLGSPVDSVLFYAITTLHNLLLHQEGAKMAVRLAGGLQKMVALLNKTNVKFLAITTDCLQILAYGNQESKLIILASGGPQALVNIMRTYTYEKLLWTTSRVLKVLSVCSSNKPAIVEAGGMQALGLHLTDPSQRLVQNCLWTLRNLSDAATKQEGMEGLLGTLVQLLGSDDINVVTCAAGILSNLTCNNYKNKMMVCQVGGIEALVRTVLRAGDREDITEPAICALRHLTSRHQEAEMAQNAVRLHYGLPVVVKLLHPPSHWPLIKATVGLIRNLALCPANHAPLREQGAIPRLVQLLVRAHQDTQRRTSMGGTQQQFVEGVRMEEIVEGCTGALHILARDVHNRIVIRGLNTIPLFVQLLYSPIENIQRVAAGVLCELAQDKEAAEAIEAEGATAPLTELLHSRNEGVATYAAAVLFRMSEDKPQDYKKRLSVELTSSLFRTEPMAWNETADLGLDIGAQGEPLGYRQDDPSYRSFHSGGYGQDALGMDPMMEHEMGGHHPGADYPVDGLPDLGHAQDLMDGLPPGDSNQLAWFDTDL

[2] = molecular target: T2, beta-catenin/TCF4 engagement (Homo sapiens, UniProt P35222); experiment: Nano-BRET target engagement assay (B-cat-Halo & TCF4-Luc in HEK293 cells); type: cell-based
T2 construct: expressed in transfected cells; host or cells: HEK293
T2 sequence (P35222 1-781): T1 sequence (P35222 1-781)

[3] = fluorescence polarization, read-out: beta-Catenin FP IC50
[4] = absolute IC50, read-out: NanoBRET Abs IC50
[5] = beta-Catenin FP IC50, fluorescence polarization
[6] = NanoBRET Abs IC50, absolute IC50
[7] = fluorescence polarization, beta-catenin, read-out: FP EC50

Structure (SMILES) | pIC50 [1, 3] | pIC50 [2, 4] | pIC50 [1, 7] | pIC50 [1, 5] | pIC50 [2, 6]
CCCC[C@@H]1NC(=O)[C@H](CC(=O)O)NC(=O)[C@]2(CC=CCCCC3(CCCC=CCCCOC(=O)N4CC[C@@](C(=O)N[C@@H](Cc5ccsc5)C(=O)N[C@@H](Cc5csc6ccccc56)C(=O)N[C@@H](CCC(N)=O)C(N)=O)(C4)NC(=O)[C@H](CCCC)NC(=O)[C@H](Cc4ccccc4)NC(=O)[C@H](C)NC(=O)[C@H](C)NC(=O)[C@H](Cc4cccc(C(=O)O)c4)NC(=O)[C@H](CC(=O)O)NC3=O)NC1=O)CCCN2C(C)=O (stereo partly drawn) [I-1408, Ac-PL3-Asp-nLeu-B5-Asp-3COOHF-Ala-Ala-Phe-nLeu-PyrS2-3Thi-BztA-Gln-NH2] | 7.48 | 5.22 | – | – | –
CC(=O)N1CCC[C@]12CC=CCCCC1(CCCC=CCCCOC(=O)N3CC[C@@](C(=O)N[C@@H](Cc4ccsc4)C(=O)N[C@@H](Cc4csc5ccccc45)C(=O)N[C@@H](CC(C)C)C(N)=O)(C3)NC(=O)[C@H](CC(C)C)NC(=O)[C@H](Cc3ccccc3)NC(=O)[C@H](C)NC(=O)[C@H](C)NC(=O)[C@H](CC(=O)O)NC(=O)[C@H](CC(=O)O)NC1=O)NC(=O)[C@H](CC(C)(C)C)NC(=O)[C@H](CC(=O)O)NC2=O (stereo partly drawn) [I-1409, Ac-PL3-Asp-Npg-B5-Asp-Asp-Ala-Ala-Phe-Leu-PyrS2-3Thi-BztA-Leu-NH2] | 7.13 | 4.62 | – | – | –
CC(=O)N1CCC[C@]12CC=CCCCC1(CCCC=CCCCOC(=O)N3CC[C@@](C(=O)N[C@@H](Cc4ccsc4)C(=O)N[C@@H](Cc4csc5ccccc45)C(=O)N[C@@H](CC(C)C)C(N)=O)(C3)NC(=O)[C@H](CC(C)C)NC(=O)[C@H](Cc3ccccc3)NC(=O)[C@H](C)NC(=O)[C@H](C)NC(=O)[C@H](CC(=O)O)NC(=O)[C@H](CC(=O)O)NC1=O)NC(=O)[C@H](CC(C)C)NC(=O)[C@H](CC(=O)O)NC2=O (stereo partly drawn) [I-1410, Ac-PL3-Asp-Leu-B5-Asp-Asp-Ala-Ala-Phe-Leu-PyrS2-3Thi-BztA-Leu-NH2] | – | – | – | 7.10 | 4.53
CCCC[C@@H]1NC(=O)[C@H](CC(=O)O)NC(=O)[C@]2(CC=CCCCC3(CCCC=CCCCOC(=O)N4CC[C@@](C(=O)N[C@@H](Cc5ccsc5)C(=O)N[C@@H](Cc5csc6ccccc56)C(=O)N[C@@H](CC(C)C)C(N)=O)(C4)NC(=O)[C@H](CC(C)C)NC(=O)[C@H](Cc4ccccc4)NC(=O)[C@H](C)NC(=O)[C@H](C)NC(=O)[C@H](CC(=O)O)NC(=O)[C@H](CC(=O)O)NC3=O)NC1=O)CCCN2C(C)=O (stereo partly drawn) [I-1411, Ac-PL3-Asp-nLeu-B5-Asp-Asp-Ala-Ala-Phe-Leu-PyrS2-3Thi-BztA-Leu-NH2] | 6.96 | 4.33 | 6.96 | – | –
CCCC[C@@H]1NC(=O)[C@H](CC(=O)O)NC(=O)[C@]2(CC=CCCCC3(CCCC=CCCCOC(=O)N4CC[C@@](C(=O)N[C@@H](Cc5ccsc5)C(=O)N[C@@H](Cc5csc6ccccc56)C(=O)N[C@@H](CC(C)C)C(N)=O)(C4)NC(=O)[C@H](CC(C)C)NC(=O)[C@H](Cc4ccccc4)NC(=O)[C@H](C)NC(=O)[C@H](C)NC(=O)[C@H](CC(=O)O)NC(=O)[C@H](CC(=O)O)NC3=O)NC1=O)CCCN2C(C)=O (stereo partly drawn) [I-1412, Ac-PL3-Asp-nLeu-B5-Asp-Asp-Ala-Ala-Phe-Leu-PyrS2-3Thi-BztA-Leu-NH2] | 7.10 | < 4.70 | 7.10 | – | –
CC(=O)N1CCC[C@]12CC=CCCCC1(CCCC=CCCCOC(=O)N3CC[C@@](C(=O)N[C@@H](Cc4ccsc4)C(=O)N[C@@H](Cc4csc5ccccc45)C(=O)N[C@@H](CC(C)C)C(N)=O)(C3)NC(=O)[C@H](CC(C)C)NC(=O)[C@H](Cc3ccccc3)NC(=O)[C@H](C)NC(=O)[C@H](C)NC(=O)[C@H](CC(=O)O)NC(=O)[C@H](CC(=O)O)NC1=O)NC(=O)[C@H](CO)NC(=O)[C@H](CC(=O)O)NC2=O (stereo partly drawn) [I-1414, Ac-PL3-Asp-Ser-B5-Asp-Asp-Ala-Ala-Phe-Leu-PyrS2-3Thi-BztA-Leu-NH2] | – | – | – | 7.08 | < 4.70
CC(=O)N1CCC[C@]12CC=CCCCC1(CCCC=CCCCOC(=O)N3CC[C@@](C(=O)N[C@@H](Cc4ccccc4Cl)C(=O)N[C@@H](Cc4csc5ccccc45)C(=O)N[C@@H](CC(C)C)C(N)=O)(C3)NC(=O)[C@H](CC(C)C)NC(=O)[C@H](Cc3ccccc3)NC(=O)[C@H](C)NC(=O)[C@H](C)NC(=O)[C@H](CC(=O)O)NC(=O)[C@H](CC(=O)O)NC1=O)NC(=O)[C@H](CC(C)C)NC(=O)[C@H](CC(=O)O)NC2=O (stereo partly drawn) [I-1418, Ac-PL3-Asp-Leu-B5-Asp-Asp-Ala-Ala-Phe-Leu-PyrS2-2C1F-BztA-Leu-NH2] | 6.97 | < 4.70 | 6.97 | – | –
CC(=O)N1CCC[C@]12CC=CCCCC1(CCCC=CCCCOC(=O)N3CC[C@@](C(=O)N[C@@H](Cc4ccsc4)C(=O)N[C@@H](Cc4c[nH]c5ccccc45)C(=O)N[C@@H](CO)C(N)=O)(C3)NC(=O)[C@H](CC(C)C)NC(=O)[C@H](Cc3ccccc3)NC(=O)[C@H](C)NC(=O)[C@H](C)NC(=O)[C@H](CC(=O)O)NC(=O)[C@H](CC(=O)O)NC1=O)NC(=O)[C@H](CC(C)(C)C)NC(=O)[C@H](CC(=O)O)NC2=O (stereo partly drawn) [I-1432, Ac-PL3-Asp-Npg-B5-Asp-Asp-Ala-Ala-Phe-Leu-PyrS2-3Thi-Trp-Ser-NH2] | 7.57 | 4.84 | – | – | –

Second part, led by results:

pIC50 [1, 3] | pIC50 [2, 4] | pIC50 [1, 7] | Structure (SMILES) | pIC50 [1, 5] | pIC50 [2, 6]
7.36 | 4.84 | 7.47 | CC(=O)N1CCC[C@]12CC=CCCCC1(CCCC=CCCCOC(=O)N3CC[C@@](C(=O)N[C@@H](Cc4ccsc4)C(=O)N[C@@H](Cc4c[nH]c5ccccc45)C(=O)N[C@@H](CCC(N)=O)C(N)=O)(C3)NC(=O)[C@H](CC(C)C)NC(=O)[C@H](Cc3ccccc3)NC(=O)[C@H](C)NC(=O)[C@H](C)NC(=O)[C@H](CC(=O)O)NC(=O)[C@H](CC(=O)O)NC1=O)NC(=O)[C@H](CC(C)(C)C)NC(=O)[C@H](CC(=O)O)NC2=O (stereo partly drawn) [I-1431, Ac-PL3-Asp-Npg-B5-Asp-Asp-Ala-Ala-Phe-Leu-PyrS2-3Thi-Trp-Gln-NH2] | – | –
8.15 | 5.15 | – | CC(=O)N1CCC[C@]12CC=CCCCC1(CCCC=CCCCOC(=O)N3CC[C@@](C(=O)N[C@@H](Cc4ccsc4)C(=O)N[C@@H](Cc4csc5ccccc45)C(=O)N[C@@H](CCC(N)=O)C(N)=O)(C3)NC(=O)[C@H](CC(C)C)NC(=O)[C@H](Cc3ccccc3)NC(=O)[C@H](C)NC(=O)[C@H](C)NC(=O)[C@H](CCC(=O)O)NC(=O)[C@H](CC(=O)O)NC1=O)NC(=O)[C@H](CC(C)(C)C)NC(=O)[C@H](CC(=O)O)NC2=O (stereo partly drawn) [I-1437, Ac-PL3-Asp-Npg-B5-Asp-Glu-Ala-Ala-Phe-Leu-PyrS2-3Thi-BztA-Gln-NH2] | – | –
8.30 | 5.13 | – | CC(=O)N1CCC[C@]12CC=CCCCC1(CCCC=CCCCOC(=O)N3CC[C@@](C(=O)N[C@@H](Cc4ccsc4)C(=O)N[C@@H](Cc4csc5ccccc45)C(=O)N[C@@H](CCC(N)=O)C(N)=O)(C3)NC(=O)[C@H](CC(C)C)NC(=O)[C@H](Cc3ccccc3)NC(=O)[C@H](C)NC(=O)[C@H](C)NC(=O)[C@H](CCCC(=O)O)NC(=O)[C@H](CC(=O)O)NC1=O)NC(=O)[C@H](CC(C)(C)C)NC(=O)[C@H](CC(=O)O)NC2=O (stereo partly drawn) [I-1438, Ac-PL3-Asp-Npg-B5-Asp-Aad-Ala-Ala-Phe-Leu-PyrS2-3Thi-BztA-Gln-NH2] | – | –
6.46 | < 4.70 | – | CC(=O)N1CCC[C@]12CC=CCCCC1(CCCC=CCCCOC(=O)N3CC[C@@](C(=O)N[C@@H](Cc4ccsc4)C(=O)N[C@@H](Cc4csc5ccccc45)C(=O)N[C@@H](CCC(N)=O)C(N)=O)(C3)NC(=O)[C@H](CC(C)C)NC(=O)[C@H](Cc3ccccc3)NC(=O)[C@H](C)NC(=O)[C@H](C)NC(=O)[C@H](Cc3c[nH]c4ccccc34)NC(=O)[C@H](CC(=O)O)NC1=O)NC(=O)[C@H](CC(C)(C)C)NC(=O)[C@H](CC(=O)O)NC2=O (stereo partly drawn) [I-1439, Ac-PL3-Asp-Npg-B5-Asp-Trp-Ala-Ala-Phe-Leu-PyrS2-3Thi-BztA-Gln-NH2] | – | –
7.59 | 4.68 | – | CC(=O)N1CCC[C@]12CC=CCCCC1(CCCC=CCCCOC(=O)N3CC[C@@](C(=O)N[C@@H](Cc4ccsc4)C(=O)N[C@@H](Cc4csc5ccccc45)C(=O)N[C@@H](CCC(N)=O)C(N)=O)(C3)NC(=O)[C@H](CC(C)C)NC(=O)[C@H](Cc3ccccc3)NC(=O)[C@H](C)NC(=O)[C@H](C)NC(=O)[C@H](CCC(N)=O)NC(=O)[C@H](CC(=O)O)NC1=O)NC(=O)[C@H](CC(C)(C)C)NC(=O)[C@H](CC(=O)O)NC2=O (stereo partly drawn) [I-1440, Ac-PL3-Asp-Npg-B5-Asp-Gln-Ala-Ala-Phe-Leu-PyrS2-3Thi-BztA-Gln-NH2] | – | –
7.62 | 5.02 | – | CC(=O)N1CCC[C@]12CC=CCCCC1(CCCC=CCCCOC(=O)N3CC[C@@](C(=O)N[C@@H](Cc4ccsc4)C(=O)N[C@@H](Cc4csc5ccccc45)C(=O)N[C@@H](CCC(N)=O)C(N)=O)(C3)NC(=O)[C@H](CC(C)C)NC(=O)[C@H](Cc3ccccc3)NC(=O)[C@H](C)NC(=O)[C@H](C)NC(=O)[C@H](CO)NC(=O)[C@H](CC(=O)O)NC1=O)NC(=O)[C@H](CC(C)(C)C)NC(=O)[C@H](CC(=O)O)NC2=O (stereo partly drawn) [I-1443, Ac-PL3-Asp-Npg-B5-Asp-Ser-Ala-Ala-Phe-Leu-PyrS2-3Thi-BztA-Gln-NH2] | – | –
